# Test results as given in patent US12295937B2, “Psychoactive medicines and their use for treating psychiatric and neurological conditions and disorders” (Transcend Therapeutics, Inc., priority 2021, dated 2025).
# Marks after values point to notes of the source that are not given here.
# Experiments:
# [1] = molecular target: SERT (Rattus norvegicus, UniProt P31652); experiment: [3H]5-HT release from rat brain synaptosomes; format: biochemical; set-up: from tissue; synaptosomes for uptake and release; conditions: rat brain synaptosomes; read-out: Neurotransmitter release: EC50
# Description: (§1) Test compounds and synaptosomes were prepared as described for uptake inhibition assays. Synaptosomes treated with [^3H]5-HT, [^3H]DA or [^3H]NE were loaded onto filter chambers containing GF/C filters and placed in a superfusion system. Oxygenated Krebs buffer was perfused through the chambers at a rate of 1.5 mL/minute at 35° C. using either an 8-channel or a 12-channel peristaltic pump. Trapped air bubbles were removed from the filters prior to collecting fractions to ensure an even flow over the synaptosomal bed. After a superfusion period of 45 minutes, 2 basal fractions were collected followed by 6 fractions following the addition of the test drug. […] Scintillation cocktail was added, and the filters counted to determine residual radioactivity. Drug-evoked release of neurotransmitter was calculated by subtracting the average of the two basal fractions (collected prior to the drug addition), from the four fractions collected in the presence of drug. The drug-evoked release was then expressed as a percentage of the basal release. Potassium-evoked release was calculated by subtracting the average of two fractions collected prior to the addition of high KCl buffer from that in the two fractions following addition of high KCl buffer. Potassium-stimulated release was calculated as a percentage of basal release. […]
# [2] = molecular target: DAT (Rattus norvegicus, UniProt P23977); experiment: [3H]DA release from rat brain synaptosomes; format: biochemical; set-up: from tissue; synaptosomes for uptake and release; conditions: rat brain synaptosomes; read-out: Neurotransmitter release: EC50
# Description: as §1
# [3] = molecular target: T1, 168 GPCRs (Homo sapiens, UniProt P34998); experiment: β-arrestin GPCR screen (PathHunter / GPCRmax), agonist mode; format: cell-based; conditions: CRHR1, 1 uM
# T1 construct: host or cells: PathHunter cell lines
# Description: (§2) For agonist determination, cells were incubated with sample to induce response. […] Vehicle concentration was 1%.
# [4] = molecular target: T2, 168 GPCRs (Homo sapiens, UniProt P49238); experiment: as above; format: cell-based; conditions: CX3CR1, 1 uM
# T2 construct: host or cells: PathHunter cell lines
# Description: as §2
# [5] = molecular target: T3, 168 GPCRs (Homo sapiens, UniProt P32239); experiment: as above; format: cell-based; conditions: CCKBR, 1 uM
# T3 construct: host or cells: PathHunter cell lines
# Description: as §2
# [6] = molecular target: T4, 168 GPCRs (Homo sapiens, UniProt P35408); experiment: as above; format: cell-based; conditions: PTGER4, 1 uM
# T4 construct: host or cells: PathHunter cell lines
# Description: as §2
# [7] = molecular target: T5, 168 GPCRs (Homo sapiens, UniProt Q99788); experiment: as above; format: cell-based; conditions: CMKLR1, 1 uM
# T5 construct: host or cells: PathHunter cell lines
# Description: as §2
# [8] = tested on: 168 GPCRs; experiment: as above; format: cell-based; conditions: CCR, 10 uM
# Description: as §2
# [9] = molecular target: T6, 168 GPCRs (Homo sapiens, UniProt P32249); experiment: as above; format: cell-based; conditions: EBI2, 1 uM
# T6 construct: host or cells: PathHunter cell lines
# Description: as §2
# [10] = Methylone case series, Cohorts 1 and 2 (CGI-S/CGI-I, safety); format: in vivo, human
# Description: CGI-S scale was also evaluated in a subset of patients from Cohort 2 post-treatment. Cohort 2 was evaluated for any observed or reported safety events following a single dosing session. Clinical Global Improvement Scale • Clinical Global Impressions (CGI) scale includes 2 components: CGI-S (“severity”) and CGI-I (“improvement”).
# Only sessions that included methylone dosing were counted as dosing sessions.
# Single sessions occurred for 8 of the 28 cases with no booster in two of these cases. In the remainder of the cases, multiple sessions occurred, and booster doses were used in all or some of the remaining patients ([…]) with multiple booster doses used in some or all of the sessions in 15 patients.
# [11] = molecular target: T7, 5HT2A receptor (Homo sapiens, UniProt P28223); experiment: GPCRmax screen, agonist mode, 5HT2A; format: cell-based; conditions: 1 or 10 mM
# T7 construct: host or cells: PathHunter cell lines
# [12] = molecular target: serotonin transporter (Homo sapiens, UniProt P31645); conditions: cited from earlier work
# [13] = Mouse fear extinction paradigm (PTSD model); format: in vivo; conditions: 30 mg/kg IP 30 min before extinction training; day 3
# Text: (FIG. 9A) Schematic of experimental design. A single CS-US (tone-shock) pairing on day 1 was followed by 6 CS presentations in a novel context (context B). […] On day 3, the time spent freezing to the CS was quantified. […] (FIG. 9C) No locomotor changes were observed on day 3 (t(26)=1.073, p>0.05). Data are mcan+/−SEM.
# FIGS. 10A-10B: MBDB improves fear extinction in a PTSD mouse model. A single CS-US (tone-shock) pairing on day 1 was followed by 6 conditioned stimulus (CS) presentations in a novel context (context B). MBDB or saline vehicle was injected 30 min prior to extinction training on day 2. The time spent freezing to the CS was quantified on day 2. […] Data are mean+/−SEM. N=10 for MBDB group (5 mg/kg, IP) and N=16 for saline control group. **p<0.01 vs. vehicle control group.
# Effective PTSD treatments facilitate the disassociation between a traumatic memory and the patient's fear response, making cues for the traumatic memory evoke less of a fear response. This is modeled in the mouse fear extinction paradigm (see FIG. 9A) which takes place over 3 days. […] On day 3 (extinction recall), the mice are “asked” if that tone (CS) still elicits a fearful response, as measured by the time spent freezing when the tone is presented. […]
# [14] = tested on: gene expression in amygdala, frontal cortex, hippocampus; experiment: RNA-sequencing of rat brain areas after a single dose; format: in vivo; conditions: for Genes differentially regulated vs. vehicle: 10 mg/kg IP, 8 hours
# SERT, sequence (P31652 whole entry, the tested form may be a part): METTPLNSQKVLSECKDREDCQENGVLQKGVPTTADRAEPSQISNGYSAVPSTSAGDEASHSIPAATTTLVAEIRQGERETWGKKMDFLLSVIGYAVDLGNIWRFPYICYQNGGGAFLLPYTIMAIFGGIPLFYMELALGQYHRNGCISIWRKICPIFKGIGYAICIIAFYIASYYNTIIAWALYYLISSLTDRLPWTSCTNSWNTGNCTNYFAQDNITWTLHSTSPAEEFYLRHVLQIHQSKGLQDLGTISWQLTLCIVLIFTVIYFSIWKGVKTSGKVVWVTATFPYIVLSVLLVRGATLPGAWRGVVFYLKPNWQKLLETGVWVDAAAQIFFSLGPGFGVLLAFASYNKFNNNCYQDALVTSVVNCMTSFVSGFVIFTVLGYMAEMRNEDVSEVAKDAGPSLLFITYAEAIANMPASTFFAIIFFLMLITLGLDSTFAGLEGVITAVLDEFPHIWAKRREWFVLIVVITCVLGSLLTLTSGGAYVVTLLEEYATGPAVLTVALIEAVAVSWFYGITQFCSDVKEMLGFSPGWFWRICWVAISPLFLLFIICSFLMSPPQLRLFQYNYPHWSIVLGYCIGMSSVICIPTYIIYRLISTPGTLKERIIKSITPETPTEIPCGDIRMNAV
# T6 sequence (P32249 whole entry): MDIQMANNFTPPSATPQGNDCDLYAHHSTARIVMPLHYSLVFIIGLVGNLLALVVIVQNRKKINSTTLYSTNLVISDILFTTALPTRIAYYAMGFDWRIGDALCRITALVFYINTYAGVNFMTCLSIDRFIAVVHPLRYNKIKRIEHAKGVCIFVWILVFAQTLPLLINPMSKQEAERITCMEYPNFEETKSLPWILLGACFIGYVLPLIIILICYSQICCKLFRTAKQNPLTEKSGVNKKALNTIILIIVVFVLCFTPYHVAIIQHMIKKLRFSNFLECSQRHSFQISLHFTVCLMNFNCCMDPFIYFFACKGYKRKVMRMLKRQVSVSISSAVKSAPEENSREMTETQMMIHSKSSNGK
# T3 sequence (P32239 whole entry): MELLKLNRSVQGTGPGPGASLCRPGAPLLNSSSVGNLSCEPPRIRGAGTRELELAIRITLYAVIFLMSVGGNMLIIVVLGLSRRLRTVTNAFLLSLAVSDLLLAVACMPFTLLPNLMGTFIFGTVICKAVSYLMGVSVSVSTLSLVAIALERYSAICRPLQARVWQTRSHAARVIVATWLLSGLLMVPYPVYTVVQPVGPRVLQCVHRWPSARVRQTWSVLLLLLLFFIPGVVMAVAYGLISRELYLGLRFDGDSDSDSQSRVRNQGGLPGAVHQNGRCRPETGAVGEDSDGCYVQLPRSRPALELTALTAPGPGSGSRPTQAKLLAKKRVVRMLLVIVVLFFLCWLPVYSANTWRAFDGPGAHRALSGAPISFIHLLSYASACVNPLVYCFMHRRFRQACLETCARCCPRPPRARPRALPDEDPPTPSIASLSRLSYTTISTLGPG
# T4 sequence (P35408 whole entry): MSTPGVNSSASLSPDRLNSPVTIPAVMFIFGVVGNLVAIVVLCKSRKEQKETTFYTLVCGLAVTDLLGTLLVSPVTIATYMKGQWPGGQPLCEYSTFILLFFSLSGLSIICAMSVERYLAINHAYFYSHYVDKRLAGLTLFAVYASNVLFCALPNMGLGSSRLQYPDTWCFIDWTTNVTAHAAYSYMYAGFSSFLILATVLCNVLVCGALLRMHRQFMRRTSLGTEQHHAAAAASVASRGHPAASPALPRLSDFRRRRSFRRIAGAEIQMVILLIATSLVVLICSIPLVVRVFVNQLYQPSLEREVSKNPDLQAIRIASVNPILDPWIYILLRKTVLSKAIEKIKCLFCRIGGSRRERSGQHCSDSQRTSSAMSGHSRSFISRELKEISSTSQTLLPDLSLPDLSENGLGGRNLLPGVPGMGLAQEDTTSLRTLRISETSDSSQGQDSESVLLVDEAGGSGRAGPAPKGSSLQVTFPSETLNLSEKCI
# serotonin transporter, sequence (P31645 whole entry): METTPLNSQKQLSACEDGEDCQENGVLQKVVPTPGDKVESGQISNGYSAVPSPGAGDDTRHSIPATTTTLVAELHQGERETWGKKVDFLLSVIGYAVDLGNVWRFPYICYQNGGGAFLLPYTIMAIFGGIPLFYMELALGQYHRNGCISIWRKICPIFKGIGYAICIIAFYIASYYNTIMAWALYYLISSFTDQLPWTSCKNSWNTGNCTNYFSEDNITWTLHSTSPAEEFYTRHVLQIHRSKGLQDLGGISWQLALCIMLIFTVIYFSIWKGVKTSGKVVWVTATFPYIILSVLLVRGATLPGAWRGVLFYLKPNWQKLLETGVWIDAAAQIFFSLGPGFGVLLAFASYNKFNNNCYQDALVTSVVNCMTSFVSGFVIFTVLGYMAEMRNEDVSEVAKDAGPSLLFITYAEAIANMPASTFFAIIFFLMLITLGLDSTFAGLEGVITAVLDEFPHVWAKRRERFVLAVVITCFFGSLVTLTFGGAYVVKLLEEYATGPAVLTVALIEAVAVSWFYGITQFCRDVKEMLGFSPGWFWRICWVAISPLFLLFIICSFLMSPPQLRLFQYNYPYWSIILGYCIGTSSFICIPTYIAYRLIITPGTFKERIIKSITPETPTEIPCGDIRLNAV
# T1 sequence (P34998 24-415): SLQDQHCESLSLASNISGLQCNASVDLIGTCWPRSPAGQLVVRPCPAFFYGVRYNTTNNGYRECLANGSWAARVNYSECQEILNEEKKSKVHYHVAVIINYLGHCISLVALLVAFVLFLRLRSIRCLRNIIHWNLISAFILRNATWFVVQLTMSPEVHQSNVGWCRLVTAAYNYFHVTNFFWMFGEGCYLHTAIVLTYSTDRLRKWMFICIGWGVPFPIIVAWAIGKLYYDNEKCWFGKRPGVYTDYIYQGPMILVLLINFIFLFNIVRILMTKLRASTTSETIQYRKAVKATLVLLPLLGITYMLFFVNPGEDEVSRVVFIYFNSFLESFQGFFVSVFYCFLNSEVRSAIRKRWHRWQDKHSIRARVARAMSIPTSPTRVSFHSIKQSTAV
# T7 sequence (P28223 whole entry): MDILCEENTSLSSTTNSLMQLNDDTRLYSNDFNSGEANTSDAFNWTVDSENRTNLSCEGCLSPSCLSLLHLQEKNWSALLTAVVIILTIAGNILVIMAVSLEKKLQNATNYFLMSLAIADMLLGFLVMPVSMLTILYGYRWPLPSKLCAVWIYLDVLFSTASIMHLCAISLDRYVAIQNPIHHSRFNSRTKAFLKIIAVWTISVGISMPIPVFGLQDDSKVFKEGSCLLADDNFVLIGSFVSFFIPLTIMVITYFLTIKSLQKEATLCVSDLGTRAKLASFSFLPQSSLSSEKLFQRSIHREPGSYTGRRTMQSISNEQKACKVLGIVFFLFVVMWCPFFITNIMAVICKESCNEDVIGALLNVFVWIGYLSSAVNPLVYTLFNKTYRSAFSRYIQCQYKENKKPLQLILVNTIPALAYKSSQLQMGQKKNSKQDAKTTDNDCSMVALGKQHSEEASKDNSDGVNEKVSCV
# T2 sequence (P49238 whole entry): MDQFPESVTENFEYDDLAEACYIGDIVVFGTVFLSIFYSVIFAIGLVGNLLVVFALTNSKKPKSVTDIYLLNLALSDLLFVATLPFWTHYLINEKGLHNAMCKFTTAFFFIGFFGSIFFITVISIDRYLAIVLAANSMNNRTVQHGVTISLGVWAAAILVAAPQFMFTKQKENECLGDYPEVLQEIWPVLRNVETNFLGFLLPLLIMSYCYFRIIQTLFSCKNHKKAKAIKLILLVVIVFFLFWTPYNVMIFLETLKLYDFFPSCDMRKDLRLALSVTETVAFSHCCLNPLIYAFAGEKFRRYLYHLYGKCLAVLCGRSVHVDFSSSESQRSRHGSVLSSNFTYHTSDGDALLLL
# DAT, sequence (P23977 whole entry): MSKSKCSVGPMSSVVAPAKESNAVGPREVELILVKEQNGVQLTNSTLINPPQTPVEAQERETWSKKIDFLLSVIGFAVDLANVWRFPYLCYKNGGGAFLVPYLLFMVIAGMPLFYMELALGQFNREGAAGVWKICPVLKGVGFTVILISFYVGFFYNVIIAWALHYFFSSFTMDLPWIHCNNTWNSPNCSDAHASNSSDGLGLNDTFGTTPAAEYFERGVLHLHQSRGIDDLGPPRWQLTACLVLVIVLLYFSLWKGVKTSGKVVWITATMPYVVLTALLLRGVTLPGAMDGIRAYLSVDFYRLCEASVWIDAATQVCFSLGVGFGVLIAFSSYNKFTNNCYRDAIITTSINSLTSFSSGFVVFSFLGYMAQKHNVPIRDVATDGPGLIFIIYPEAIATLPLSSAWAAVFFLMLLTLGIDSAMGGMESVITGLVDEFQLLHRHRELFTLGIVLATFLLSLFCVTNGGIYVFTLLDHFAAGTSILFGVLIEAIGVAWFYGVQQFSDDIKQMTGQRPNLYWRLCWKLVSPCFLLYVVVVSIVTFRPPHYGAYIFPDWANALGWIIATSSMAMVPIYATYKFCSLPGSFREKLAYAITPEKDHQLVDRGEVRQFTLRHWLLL
# T5 sequence (Q99788 whole entry): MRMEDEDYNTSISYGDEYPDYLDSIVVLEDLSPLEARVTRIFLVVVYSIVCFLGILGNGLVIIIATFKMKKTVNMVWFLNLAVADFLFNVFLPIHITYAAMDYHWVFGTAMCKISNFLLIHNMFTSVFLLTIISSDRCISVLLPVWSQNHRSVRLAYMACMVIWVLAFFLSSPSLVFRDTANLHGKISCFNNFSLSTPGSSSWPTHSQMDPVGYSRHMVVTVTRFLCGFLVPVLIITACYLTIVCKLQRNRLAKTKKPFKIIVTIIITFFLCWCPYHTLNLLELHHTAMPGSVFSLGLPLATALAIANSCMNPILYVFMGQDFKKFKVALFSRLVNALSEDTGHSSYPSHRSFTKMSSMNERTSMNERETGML
structure (smiles),measurement,setting,value
"CNC(C)C(=O)c1ccc2c(c1)OCO2 (stereo not drawn) [Methylone, 3,4-methylenedioxy-N-methylcathinone]",EC50,[1],620 nM
same,EC50,[2],4790 nM
same,% Activity,[3],1.4%
same,% Activity,[4],0%
same,% Activity,[5],−1%
same,% Activity,[6],2.8%
same,% Activity,[7],−0.2%
same,% Activity,[8],3.6%
same,% Activity,[9],0.5%
same,Adverse effects in healthy subjects,"[10]; Cohort 1, 4 subjects, single session, total dose 790 or 870 mg",no adverse effects or after-effects were observed or reported
same,Cases well tolerated with no safety events reported,"[10]; Cohort 2, 25 of 28 cases",89.3%
same,Patients with initial improvement at the first methylone session,"[10]; Cohort 2, 25 of 28 patients",~90%
same,Number of cases with CGI-I 2,"[10]; Cohort 2, N = 28",13
same,Number of cases with CGI-I 3,"[10]; Cohort 2, N = 28",4
same,Number of cases with CGI-I 4,"[10]; Cohort 2, N = 28",0
same,Number of cases with CGI-I 5,"[10]; Cohort 2, N = 28",0
same,Number of cases with CGI-I 6,"[10]; Cohort 2, N = 28",0
same,Number of cases with CGI-I 7,"[10]; Cohort 2, N = 28",0
same,Number of cases with CGI-I 1 (highest observed magnitude of improvement),"[10]; Cohort 2, N = 28 PTSD/MDD patients, oral",11*
same,Patients achieving CGI-I 1 or 2,[10]; Cohort 2 overall,86%
same,Cases reporting a durable effect,"[10]; MDD subset, 6 narratives with durability information",5
same,Patients achieving CGI-I 1 or 2,"[10]; MDD subset, 8/8 patients",100%
same,Patients achieving CGI-I 1 or 2,"[10]; PTSD subset, 16/20 patients",80%
same,Case narratives reporting a durable effect,"[10]; PTSD subset, 16 narratives with durability information",15
same,Agonist % activity,[11],no agonist or antagonist activity
same,"Affinity for the serotonin transporter, times lower compared to MDMA",[12],3 ×
same,Enhancement of fear extinction recall vs. saline controls,[13],~60%
same,Genes regulated by methylone that are also regulated by MDMA,[14]; amygdala,87%
same,Genes differentially regulated vs. vehicle,"[14]; amygdala, >25% change, padj<0.1",121 genes
same,Genes regulated by both treatments,[14]; frontal cortex,154 genes
same,Genes significantly regulated,"[14]; frontal cortex, 10 mg/kg IP (Example 27)",480 genes
same,Genes differentially regulated vs. vehicle,[14]; frontal cortex,471 genes
same,Genes differentially regulated vs. vehicle,[14]; hippocampus,12 genes
